Reference: ChEMBL document CHEMBL2390887, “Pyrazole derivatives as inhibitors of arachidonic acid-induced platelet aggregation” (Eur J Med Chem, 2013)
Calls of active or inactive are those of the source. The rule behind the calls is not given here.

Experiments:
Type in all cases: functional
[1] = Antiplatelet activity in human platelet rich plasma assessed as inhibition of arachidonic acid-induced platelet aggregation preincubated for 3 mins before arachidonic acid challenge by turbidimetric method
[2] = (§1) Antiplatelet activity in human platelet rich plasma assessed as inhibition of ADP-induced platelet aggregation at 10 uM preincubated for 3 mins before ADP challenge by turbidimetric method
[3] = (§2) Antiplatelet activity in human platelet rich plasma assessed as inhibition of arachidonic acid-induced platelet aggregation at 10 uM preincubated for 3 mins before arachidonic acid challenge by turbidimetric method
[4] = Antiplatelet activity in human platelet rich plasma assessed as inhibition of collagen-induced platelet aggregation at 10 uM preincubated for 3 mins before collagen challenge by turbidimetric method
[5] = (§3) Antiplatelet activity in human platelet rich plasma assessed as inhibition of arachidonic acid-induced platelet aggregation at 1 uM preincubated for 3 mins before arachidonic acid challenge by turbidimetric method
[6] = Antiplatelet activity in human platelet rich plasma assessed as inhibition of collagen-induced platelet aggregation at 1 uM preincubated for 3 mins before collagen challenge by turbidimetric method
Platelet [7] = assay: as §1
Platelet [8] = assay: as §3
[9] = Antiplatelet activity in human platelet rich plasma assessed as inhibition of arachidonic acid-induced platelet aggregation at 100 uM preincubated for 3 mins before arachidonic acid challenge by turbidimetric method
Platelet [10] = assay: as §2

SMILES | IC50 [1] [nM] | inhibition at 10 µM [3] [%] | inhibition at 10 µM [4] [%] | inhibition at 1 µM [5] [%] | other results
COc1ccc(-n2nc(C(=O)N3CCCC3)cc2-c2ccc(Cl)cc2)cc1 | 5.7 | – | – | – | –
COc1ccc(-n2nc(C(=O)OCCC(C)C)cc2-c2ccc(Cl)cc2)nn1 | 1330 | 91.2 | 66.7 | 19 | inhibition at 10 µM [2]: 6.77%; inhibition at 1 µM [6]: 34.2%
COc1ccc(-n2nc(C(=O)N3CCN(c4ccc(C(F)(F)F)cn4)CC3)cc2-c2ccc(Cl)cc2)nn1 | 5490 | 65.5 | 16 | 10.9 | inhibition at 10 µM [2]: 6.8%
CCCOc1ccc(OC(=O)c2cc(-c3ccc(Cl)cc3)n(-c3ccc(OC)nn3)n2)cc1 | – | 93 | 61.9 | 3.87 | inhibition (Platelet [7]): inactive; inhibition at 1 µM [6]: 32.2%
COc1ccc(-n2nc(C(=O)Nc3ccc(Cl)cc3)cc2-c2ccc(Cl)cc2)nn1 | 610 | 74.3 | 70.5 | 80.9 | inhibition at 10 µM [2]: 7.93%; inhibition at 1 µM [6]: 25.7%
COc1ccc(-n2nc(C(=O)N3CCCCC3)cc2C)nn1 | > 10000 | – | – | – | –
COc1ccc(-n2nc(C(=O)Nc3ccncc3)cc2-c2ccc(Cl)cc2)nn1 | 110 | 80.5 | 73.6 | 84.9 | inhibition at 10 µM [2]: 8.14%; inhibition at 1 µM [6]: 77.6%
COc1ccc(-n2nc(C(=O)N3CCN(c4ccc(F)cc4)CC3)cc2-c2ccc(Cl)cc2)nn1 | – | 79.7 | 32.2 | – | inhibition (Platelet [7]): inactive; inhibition (Platelet [8]): inactive
CS(=O)(=O)c1ccc(-n2nc(C(=O)N3CCCCC3)cc2-c2ccc(Cl)cc2)nn1 | 19600 | – | – | – | –
COc1ccc(-n2nc(CCC(=O)N3CCCCC3)cc2-c2ccc(Cl)cc2)nn1 | 920 | – | – | – | –
Cn1nc(-c2ccc(Cl)cc2)cc1C(=O)N1CCOCC1 | > 10000 | – | – | – | –
CCOC(=O)c1cc(-c2ccc(Cl)cc2)n(-c2ccc(Cl)nn2)n1 | – | – | – | – | inhibition at 100 µM [9]: 67%
COc1ccc(-n2nc(CCC(=O)N3CCOCC3)cc2-c2ccc(Cl)cc2)nn1 | 1080 | – | – | – | –
COc1ccc(-n2nc(C(=O)N3CCCC3)cc2-c2ccc(Cl)cc2)nn1 | 15 | – | – | – | –
COc1ccc(-n2nc(C(=O)Oc3ccc(C)cc3)cc2-c2ccc(Cl)cc2)nn1 | – | 95 | 48.5 | 23.6 | inhibition (Platelet [7]): inactive
COc1ccc(NC(=O)c2cc(-c3ccc(Cl)cc3)n(-c3ccc(OC)nn3)n2)cc1 | 400 | 79.9 | 72.1 | 94.2 | inhibition at 10 µM [2]: 3.92%; inhibition at 1 µM [6]: 43.6%
Cn1nc(-c2ccc(Cl)cc2)cc1C(=O)N1CCCCC1 | > 10000 | – | – | – | –
O=C(c1cc(-c2ccc(Cl)cc2)n[nH]1)N1CCOCC1 | > 10000 | – | – | – | –
COc1ccc(-c2onc(C(=O)N3CCCCC3)c2-c2ccc(Cl)cc2)cc1 | 5030 | – | – | – | –
CS(=O)(=O)c1ccc(-n2nc(C(=O)N3CCOCC3)cc2-c2ccc(Cl)cc2)nn1 | > 20000 | – | – | – | –

SMILES | IC50 [1] [nM] | inhibition at 10 µM [3] [%] | inhibition at 10 µM [4] [%] | inhibition at 1 µM [5] [%] | other results
COc1ccc(-n2nc(C(=O)Oc3ccc(-n4ccnc4)cc3)cc2-c2ccc(Cl)cc2)nn1 | – | 90 | 2.11 | 5.25 | inhibition (Platelet [7]): inactive
COc1ccc(-n2nc(C(=O)N3CCCCC3)cc2-c2ccc(Cl)cc2)cc1 | 7.9 | – | – | – | –
COc1ccc(-n2nc(C(=O)Oc3ccc(C4CCCC4)cc3)cc2-c2ccc(Cl)cc2)nn1 | – | 86.7 | 19.9 | – | inhibition (Platelet [7]): inactive; inhibition (Platelet [8]): inactive
COc1ccc2c(c1)c(CC(=O)O)c(C)n2C(=O)c1ccc(Cl)cc1 [INDOMETHACIN] | 1620 | – | – | – | –
COc1ccc(-n2nc(C(=O)N3CCCCC3)cc2-c2ccc(Cl)cc2)nn1 | 41 | 94.8 | 71.1 | 92.9 | inhibition (Platelet [7]): inactive; inhibition at 1 µM [6]: 76.8%
CC(=O)Oc1ccccc1C(=O)O [ASPIRIN] | 7760 | – | – | – | –
O=C(c1cc(-c2ccc(Cl)cc2)n[nH]1)N1CCCCC1 | > 10000 | – | – | – | –
COc1ccc(-n2nc(C(=O)N3CCOCC3)cc2C)nn1 | > 10000 | – | – | – | –
COc1ccc(-n2nc(C(=O)N3CCOCC3)cc2-c2ccc(Cl)cc2)cc1 | 7.3 | – | – | – | –
COc1ccc(-n2nc(C(=O)N3CCOCC3)cc2-c2ccc(Cl)cc2)nn1 | 83 | 94.8 | 70.9 | 92.7 | inhibition at 10 µM [2]: 11.3%; inhibition at 1 µM [6]: 74.2%
COc1ccc(-n2nc(C(=O)N3CCN(c4ccc(C)cc4)CC3)cc2-c2ccc(Cl)cc2)nn1 | 4670 | 97.6 | 20.1 | 3.96 | inhibition (Platelet [7]): inactive
COc1ccc(OC(=O)c2cc(-c3ccc(Cl)cc3)n(-c3ccc(OC)nn3)n2)cc1 | – | 84.2 | 24.2 | 6.05 | inhibition (Platelet [7]): inactive
O=C(c1cc(-c2ccc(Cl)cc2)n(-c2ccc(=O)[nH]n2)n1)N1CCOCC1 | 12600 | – | – | – | –
COc1ccc(-n2nc(C(=O)Oc3cccnc3Cl)cc2-c2ccc(Cl)cc2)nn1 | – | 86.5 | 8.49 | – | inhibition (Platelet [7]): inactive; inhibition (Platelet [8]): inactive
COc1ccc(-n2nc(C(=O)Oc3ccc4ccccc4c3)cc2-c2ccc(Cl)cc2)nn1 | – | 86.3 | 22.4 | 2.36 | inhibition at 10 µM [2]: 3.34%
COc1ccc(-c2onc(C(=O)N3CCOCC3)c2-c2ccc(Cl)cc2)cc1 | 18400 | – | – | – | –
O=C(c1cc(-c2ccc(Cl)cc2)n(-c2ccc(=O)[nH]n2)n1)N1CCCCC1 | 2090 | – | – | – | –
COc1ccc(-n2nc(C(=O)Oc3cccc(C(C)C)c3)cc2-c2ccc(Cl)cc2)nn1 | – | 84 | 42.3 | 8.97 | inhibition (Platelet [7]): inactive
COc1ccc(-n2nc(C(=O)N3CCN(c4ncccn4)CC3)cc2-c2ccc(Cl)cc2)nn1 | – | – | 22.9 | – | inhibition at 10 µM [2]: 2.7%; inhibition (Platelet [10]): inactive; inhibition (Platelet [8]): inactive
